Consider 30 molecules from patent US8377949B2, “Quinazolinedione chymase inhibitors” (Boehringer Ingelheim International GmbH, priority 2007, dated 2013).

Several values for one entry are separate records, joined by “and”; a condition that tells them apart may be missing. Equal entries are not always repeated.

What is called IC50 is the concentration needed to halve the response being measured. The low end stands for greater potency in that assay, the high end for weaker potency in that assay.

The test concerns the target T1, Chymase (Homo sapiens, UniProt P23946).
T1 sequence (P23946 22-247): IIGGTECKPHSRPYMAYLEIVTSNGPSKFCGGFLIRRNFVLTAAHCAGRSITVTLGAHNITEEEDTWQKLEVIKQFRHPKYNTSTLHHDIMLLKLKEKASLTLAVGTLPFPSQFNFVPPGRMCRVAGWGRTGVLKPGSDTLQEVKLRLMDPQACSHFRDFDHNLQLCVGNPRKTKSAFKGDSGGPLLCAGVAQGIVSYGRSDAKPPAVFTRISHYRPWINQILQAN
Put plainly: In vitro Assay for Inhibition of Chymase. The settings on record: 500 pM chymase, 100 nM rhodamine 110 peptide substrate, 1 hour at 28° C., fluorescence. Type of test: biochemical. As to the method:
In vitro Assay for Inhibition of Chymase
Chymase assays were performed in a total volume of 15 μL in Corning black opaque 384-well microtiter plates with a non-binding surface (Coming, N.Y.). The assay buffer was comprised of 20 mM Tris HCl pH 8.0, 50 mM NaCl, 0.01% CHAPS. The test compounds were serially diluted 3-fold with neat DMSO in a 96-well polypropylene plate from a 10 mM DMSO stock to give the 10 point dose response curve. 3 μL of the resulting DMSO solution were transferred to a 384-well polypropylene plate in duplicate, and 37 μL of assay buffer was added. Chymase was added to the assay plate in 3 uL of assay buffer followed by 2 uL of the appropriate compound dilution using a PlateMate Plus (Matrix Technologies Corp., Hudson, N.H.). The reaction was initiated by the addition of 10 uL rhodamine 110, bis-(succinoyl-L-alanyl-L-alanyl-L-prolyl-L-phenylalanylamide) (American Peptides, Sunnyvale, Calif.) in assay buffer containing 150 μM tris(2-carboxyethyl)phosphine (TCEP, Pierce Chemical, Rockford, Ill.) using a Multidrop (Thermo Electron Corp., Waltham, Mass.). Final assay concentrations were 500 pM chymase, 100 nM substrate, 100 μM TCEP, and 1% DMSO. The plates were incubated at 28° C. and 80% humidity for 1 hour, at which time the fluorescence was read on a Viewlux 1430 Microplate Imager (Perkin Elmer Life Sciences, Boston, Mass.) with 485 nm excitation, 530 nm emission, and a fluorescein dichroic mirror. The percentage of control values were calculated relative to assay blanks containing complete reaction minus chymase and a 100% control containing assay buffer with 1% DMSO in place of compound. IC50 values were obtained by fitting the data using XLFit4 (IDBS Software).
The molecule `Cc1cccc2c1c(Cn1c(=O)n(CC3(C(=O)O)CCCCC3)c(=O)c3ccccc31)cn2C` [1-[1-(1,4-Dimethyl-1H-indol-3-ylmethyl)-2,4-dioxo-1,4-dihydro-2H-quinazolin-3-ylmethyl]-cyclohexanecarboxylic acid] came in with a half-inhibitory concentration (IC50) of 3 nM.

Regarding `CCC(C(=O)O)n1c(=O)c2ccccc2n(Cc2cn(C)c3cccc(C)c23)c1=O` (stereo not drawn) [2-[1-(1,4-Dimethyl-1H-indol-3-ylmethyl)-2,4-dioxo-1,4-dihydro-2H-quinazolin-3-yl]-butyric acid], the midpoint of inhibition, the IC50, lay at 4 nM.

Turning to `CCCCC(C(=O)O)n1c(=O)c2ccccc2n(Cc2cn(C)c3cccc(C)c23)c1=O` (stereo not drawn) [2-[1-(1,4-Dimethyl-1H-indol-3-ylmethyl)-2,4-dioxo-1,4-dihydro-2H-quinazolin-3-yl]-hexanoic acid], the IC50 is 3 nM.

In the case of `CCCC(C(=O)O)n1c(=O)c2ccccc2n(Cc2cn(C)c3cccc(C)c23)c1=O` (stereo not drawn) [2-[1-(1,4-Dimethyl-1H-indol-3-ylmethyl)-2,4-dioxo-1,4-dihydro-2H-quinazolin-3-yl]-pentanoic acid], the IC50 amounted to 4 nM.

`CCCCC(CC(=O)O)n1c(=O)c2ccccc2n(Cc2cn(C)c3cccc(C)c23)c1=O` (stereo not drawn) [3-[1-(1,4-Dimethyl-1H-indol-3-ylmethyl)-2,4-dioxo-1,4-dihydro-2H-quinazolin-3-yl]-heptanoic acid] gave a 50% inhibitory concentration (IC50) of 4 nM.

`CCC(CC(=O)O)n1c(=O)c2ccccc2n(Cc2nsc3cc(C)cc(C)c23)c1=O` (stereo not drawn) [3-[1-(4,6-Dimethyl-1,2-benzisothiazol-3-ylmethyl)-2,4-dioxo-1,4-dihydro-2H-quinazolin-3-yl]-pentanoic acid] displayed an IC50 of 2 nM.

With `Cc1cccc2c1c(Cn1c(=O)n(CC(CC(=O)O)c3ccccc3)c(=O)c3ccccc31)cn2C` (stereo not drawn) [4-[1-(1,4-Dimethyl-1H-indol-3-ylmethyl)-2,4-dioxo-1,4-dihydro-2H-quinazolin-3-yl]-3-phenyl-butyric acid], half-maximal inhibition (IC50) required 3 nM.

As to `CC[C@H](C(=O)O)n1c(=O)c2ccccc2n(Cc2cn(C)c3cccc(C)c23)c1=O` [(R)-2-[1-(1,4-Dimethyl-1H-indol-3-ylmethyl)-2,4-dioxo-1,4-dihydro-2H-quinazolin-3-yl]-butyric acid], the IC50 was found to be 1.4 nM.

With `CCCC[C@H](C(=O)O)n1c(=O)c2ccccc2n(Cc2cn(C)c3cccc(C)c23)c1=O` [(R)-2-[1-(1,4-Dimethyl-1H-indol-3-ylmethyl)-2,4-dioxo-1,4-dihydro-2H-quinazolin-3-yl]-hexanoic acid], the IC50 was 3 nM and 0.8 nM.

Take `Cc1cccc2c1c(Cn1c(=O)n([C@H](C)C(=O)O)c(=O)c3ccccc31)cn2C` [(R)-2-[1-(1,4-Dimethyl-1H-indol-3-ylmethyl)-2,4-dioxo-1,4-dihydro-2H-quinazolin-3-yl]-propionic acid]: the IC50 was determined as 1.9 nM.

In turn, `CCCC[C@H](C(=O)O)n1c(=O)c2cc(OC)ccc2n(Cc2cn(C)c3cccc(C)c23)c1=O` [(R)-2-[1-(1,4-Dimethyl-1H-indol-3-ylmethyl)-6-methoxy-2,4-dioxo-1,4-dihydro-2H-quinazolin-3-yl]-hexanoic acid] yielded an IC50 of 1.6 nM.

`CCCC[C@H](C(=O)O)n1c(=O)c2ccccc2n(Cc2nsc3cc(C)cc(C)c23)c1=O` [(R)-2-[1-(4,6-Dimethyl-1,2-benzisothiazol-3-ylmethyl)-2,4-dioxo-1,4-dihydro-2H-quinazolin-3-yl]-hexanoic acid] registered an IC50 of 3 nM.

In turn, `CCC[C@H](C(=O)O)n1c(=O)c2ccccc2n(Cc2cn(C)c3cc(C)cc(C)c23)c1=O` [(R)-2-[2,4-Dioxo-1-(1,4,6-trimethyl-1H-indol-3-ylmethyl)-1,4-dihydro-2H-quinazolin-3-yl]-pentanoic acid] gave a half-inhibitory concentration (IC50) of 0.27 nM.

On to `Cc1cccc2c1c(Cn1c(=O)n([C@H](CC(=O)O)c3ccccc3)c(=O)c3ccccc31)cn2C` [(R)-3-[1-(1,4-Dimethyl-1H-indol-3-ylmethyl)-2,4-dioxo-1,4-dihydro-2H-quinazolin-3-yl]-3-phenyl-propionic acid], for which it took 1 nM to reach half-maximal inhibition (IC50).

Turning to `CC[C@H](CC(=O)O)n1c(=O)c2ccccc2n(Cc2cn(C)c3cccc(C)c23)c1=O` [(R)-3-[1-(1,4-Dimethyl-1H-indol-3-ylmethyl)-2,4-dioxo-1,4-dihydro-2H-quinazolin-3-yl]-pentanoic acid], the half-maximal inhibitory concentration (IC50) came to 3.9 nM.

`Cc1cccc2c1c(Cn1c(=O)n([C@@H](C(=O)O)c3ccccc3)c(=O)c3ccccc31)cn2C` [(R)-[1-(1,4-Dimethyl-1H-indol-3-ylmethyl)-2,4-dioxo-1,4-dihydro-2H-quinazolin-3-yl]-phenyl-acetic acid]: the IC50 stood at 1 nM.

Consider `Cc1cc(C)c2c(Cn3c(=O)n([C@@H](C(=O)O)c4ccccc4)c(=O)c4ccccc43)nsc2c1` [(R)-[1-(4,6-Dimethyl-1,2-benzisothiazol-3-ylmethyl)-2,4-dioxo-1,4-dihydro-2H-quinazolin-3-yl]-phenyl-acetic acid], for which the half-maximal inhibitory concentration (IC50) worked out at 1.8 nM.

Regarding `CC[C@@H](C(=O)O)n1c(=O)c2ccccc2n(Cc2cn(C)c3cccc(C)c23)c1=O` [(S)-2-[1-(1,4-Dimethyl-1H-indol-3-ylmethyl)-2,4-dioxo-1,4-dihydro-2H-quinazolin-3-yl]-butyric acid], the half-maximal inhibitory concentration (IC50) is 1.7 nM.

`CCCC[C@@H](C(=O)O)n1c(=O)c2ccccc2n(Cc2cn(C)c3cccc(C)c23)c1=O` [(S)-2-[1-(1,4-Dimethyl-1H-indol-3-ylmethyl)-2,4-dioxo-1,4-dihydro-2H-quinazolin-3-yl]-hexanoic acid] displayed a 50% inhibitory concentration (IC50) of 2 nM.

The molecule `CCC[C@@H](C(=O)O)n1c(=O)c2ccccc2n(Cc2cn(C)c3cccc(C)c23)c1=O` [(S)-2-[1-(1,4-Dimethyl-1H-indol-3-ylmethyl)-2,4-dioxo-1,4-dihydro-2H-quinazolin-3-yl]-pentanoic acid] returned an IC50 of 1.5 nM.

The molecule `Cc1cccc2c1c(Cn1c(=O)n([C@@H](C)C(=O)O)c(=O)c3ccccc31)cn2C` [(S)-2-[1-(1,4-Dimethyl-1H-indol-3-ylmethyl)-2,4-dioxo-1,4-dihydro-2H-quinazolin-3-yl]-propionic acid] registered a half-maximal inhibitory concentration (IC50) of 2.5 nM.

Regarding `CCCC[C@@H](C(=O)O)n1c(=O)c2cc(OC)ccc2n(Cc2cn(C)c3cccc(C)c23)c1=O` [(S)-2-[1-(1,4-Dimethyl-1H-indol-3-ylmethyl)-6-methoxy-2,4-dioxo-1,4-dihydro-2H-quinazolin-3-yl]-hexanoic acid], the IC50 is 2.6 nM.

As to `CCCC[C@@H](C(=O)O)n1c(=O)c2ccc(OC)cc2n(Cc2cn(C)c3cccc(C)c23)c1=O` [(S)-2-[1-(1,4-Dimethyl-1H-indol-3-ylmethyl)-7-methoxy-2,4-dioxo-1,4-dihydro-2H-quinazolin-3-yl]-hexanoic acid], half-maximal inhibition (IC50) required 4.9 nM.

In turn, `CCCC[C@@H](C(=O)O)n1c(=O)c2cc(OC)ccc2n(Cc2nsc3cc(C)cc(C)c23)c1=O` [(S)-2-[1-(4,6-Dimethyl-1,2-benzisothiazol-3-ylmethyl)-6-methoxy-2,4-dioxo-1,4-dihydro-2H-quinazolin-3-yl]-hexanoic acid] displayed an IC50 of 1.8 nM.

With `CC[C@@H](CC(=O)O)n1c(=O)c2ccccc2n(Cc2cn(C)c3cccc(C)c23)c1=O` [(S)-3-[1-(1,4-Dimethyl-1H-indol-3-ylmethyl)-2,4-dioxo-1,4-dihydro-2H-quinazolin-3-yl]-pentanoic acid], the IC50 was 3.2 nM.

`CC[C@@H](CC(=O)O)n1c(=O)c2ccccc2n(Cc2nsc3cc(C)cc(C)c23)c1=O` [(S)-3-[1-(4,6-Dimethyl-benzo[d]isothiazol-3-ylmethyl)-2,4-dioxo-1,4-dihydro-2H-quinazolin-3-yl]-pentanoic acid] returned an IC50 of 3.7 nM.

The molecule `Cc1cc(C)c2c(Cn3c(=O)n([C@H](C(=O)O)c4ccc(Cl)cc4)c(=O)c4ccccc43)nsc2c1` [(S)-(4-Chloro-phenyl)-[1-(4,6-dimethyl-1,2-benzisothiazol-3-ylmethyl)-2,4-dioxo-1,4-dihydro-2H-quinazolin-3-yl]-acetic acid] displayed a 50% inhibitory concentration (IC50) of 0.92 nM.

With `Cc1cccc2c1c(Cn1c(=O)n([C@H](C(=O)O)c3ccccc3)c(=O)c3ccccc31)cn2C` [(S)-[1-(1,4-Dimethyl-1H-indol-3-ylmethyl)-2,4-dioxo-1,4-dihydro-2H-quinazolin-3-yl]-phenyl-acetic acid], the 50% inhibitory concentration (IC50) was found to be 2 nM.

For `Cc1cc(C)c2c(Cn3c(=O)n([C@H](C(=O)O)c4ccccc4)c(=O)c4ccccc43)nsc2c1` [(S)-[1-(4,6-Dimethyl-1,2-benzisothiazol-3-ylmethyl)-2,4-dioxo-1,4-dihydro-2H-quinazolin-3-yl]-phenyl-acetic acid], the 50% inhibitory concentration (IC50) came to 1 nM.

Consider `Cc1cccc2c1c(Cn1c(=O)n(C3(CC(=O)O)CCCCC3)c(=O)c3ccccc31)cn2C` [{1-[1-(1,4-Dimethyl-1H-indol-3-ylmethyl)-2,4-dioxo-1,4-dihydro-2H-quinazolin-3-yl]-cyclohexyl}-acetic acid], for which the half-inhibitory concentration (IC50) is 3 nM.
